# Measured values: PMC2991631 (Biochemical pharmacology, 2010)
# Where two headings read alike, the source gives them in different places.
# Assays:
# [1] = system: carboxylesterases (hiCE, hCE1) in human liver microsomal extracts; assay type: biochemical; conditions: 10μM benzil
# [2] = system: carboxylesterases (CE) in human liver microsomal extracts; assay: CE activity; assay type: biochemical; conditions: 10μM benzil
# [3] = liver microsomal extracts, typical
smiles,measurement,setting,value
O=C(C(=O)c1ccccc1)c1ccccc1 [benzil],CPT-11 hydrolysis + benzil,[1]; liver microsomal extract HG03,6.62 ± 0.16 pmol/mg/h
same,Loss in CPT-11 hydrolysis + benzil,[1]; liver microsomal extract HG03,37.6 pmol/mg/h
same,Loss in CPT-11 hydrolysis + benzil [%],[1]; liver microsomal extract HG03,85%
same,CPT-11 hydrolysis + benzil,[1]; liver microsomal extract HG74,6.25 ± 0.13 pmol/mg/h
same,Loss in CPT-11 hydrolysis + benzil,[1]; liver microsomal extract HG74,33.6 pmol/mg/h
same,Loss in CPT-11 hydrolysis + benzil [%],[1]; liver microsomal extract HG74,84.3%
same,CPT-11 hydrolysis + benzil,[1]; liver microsomal extract HG93,4.58 ± 0.10 pmol/mg/h
same,Loss in CPT-11 hydrolysis + benzil,[1]; liver microsomal extract HG93,26.0 pmol/mg/h
same,Loss in CPT-11 hydrolysis + benzil [%],[1]; liver microsomal extract HG93,85.0%
same,CPT-11 hydrolysis + benzil,[1]; liver microsomal extract HG95,5.39 ± 0.09 pmol/mg/h
same,Loss in CPT-11 hydrolysis + benzil,[1]; liver microsomal extract HG95,19.1 pmol/mg/h
same,Loss in CPT-11 hydrolysis + benzil [%],[1]; liver microsomal extract HG95,78.0%
same,CPT-11 hydrolysis + benzil,[1]; liver microsomal extract HG103,4.22 ± 0.10 pmol/mg/h
same,Loss in CPT-11 hydrolysis + benzil,[1]; liver microsomal extract HG103,28.3 pmol/mg/h
same,Loss in CPT-11 hydrolysis + benzil [%],[1]; liver microsomal extract HG103,87.0%
same,CPT-11 hydrolysis + benzil,[1]; liver microsomal extract HH13,3.94 ± 0.12 pmol/mg/h
same,Loss in CPT-11 hydrolysis + benzil,[1]; liver microsomal extract HH13,30.0 pmol/mg/h
same,Loss in CPT-11 hydrolysis + benzil [%],[1]; liver microsomal extract HH13,88.4%
same,CPT-11 hydrolysis + benzil,[1]; liver microsomal extract HH61,2.80 ± 0.007 pmol/mg/h
same,Loss in CPT-11 hydrolysis + benzil,[1]; liver microsomal extract HH61,19.4 pmol/mg/h
same,Loss in CPT-11 hydrolysis + benzil [%],[1]; liver microsomal extract HH61,87.4%
same,CPT-11 hydrolysis + benzil,[1]; liver microsomal extract HH74,2.49 ± 0.04 pmol/mg/h
same,Loss in CPT-11 hydrolysis + benzil,[1]; liver microsomal extract HH74,12.9 pmol/mg/h
same,Loss in CPT-11 hydrolysis + benzil [%],[1]; liver microsomal extract HH74,83.8%
same,CPT-11 hydrolysis + benzil,[1]; liver microsomal extract HK37,4.31 ± 0.02 pmol/mg/h
same,Loss in CPT-11 hydrolysis + benzil,[1]; liver microsomal extract HK37,31.0 pmol/mg/h
same,Loss in CPT-11 hydrolysis + benzil [%],[1]; liver microsomal extract HK37,87.8%
same,CPT-11 hydrolysis + benzil,[1]; liver microsomal extract SD003,8.00 ± 0.01 pmol/mg/h
same,Loss in CPT-11 hydrolysis + benzil,[1]; liver microsomal extract SD003,46.6 pmol/mg/h
same,Loss in CPT-11 hydrolysis + benzil [%],[1]; liver microsomal extract SD003,85.4%
same,CPT-11 hydrolysis + benzil,[1]; liver microsomal extract SD004,4.38 ± 0.07 pmol/mg/h
same,Loss in CPT-11 hydrolysis + benzil,[1]; liver microsomal extract SD004,29.5 pmol/mg/h
same,Loss in CPT-11 hydrolysis + benzil [%],[1]; liver microsomal extract SD004,87.1%
same,CPT-11 hydrolysis + benzil,[1]; liver microsomal extract SD104,3.89 ± 0.32 pmol/mg/h
same,Loss in CPT-11 hydrolysis + benzil,[1]; liver microsomal extract SD104,15.6 pmol/mg/h
same,Loss in CPT-11 hydrolysis + benzil [%],[1]; liver microsomal extract SD104,80.0%
same,CPT-11 hydrolysis + benzil,[1]; liver microsomal extract SD120,6.00 ± 0.20 pmol/mg/h
same,Loss in CPT-11 hydrolysis + benzil,[1]; liver microsomal extract SD120,37.8 pmol/mg/h
same,Loss in CPT-11 hydrolysis + benzil [%],[1]; liver microsomal extract SD120,86.4%
same,CPT-11 hydrolysis + benzil,[1]; liver microsomal extract SD123,4.00 ± 0.09 pmol/mg/h
same,CPT-11 hydrolysis + benzil,[1]; liver microsomal extract SD124,5.04 ± 0.09 pmol/mg/h
same,Loss in CPT-11 hydrolysis + benzil,[1]; liver microsomal extract SD124,22.1 pmol/mg/h
same,Loss in CPT-11 hydrolysis + benzil [%],[1]; liver microsomal extract SD124,81.4%
same,CPT-11 hydrolysis + benzil,[1]; liver microsomal extract SD128,4.03 ± 0.01 pmol/mg/h
same,Loss in CPT-11 hydrolysis + benzil,[1]; liver microsomal extract SD128,25.5 pmol/mg/h
same,Loss in CPT-11 hydrolysis + benzil [%],[1]; liver microsomal extract SD128,86.4%
same,CPT-11 hydrolysis + benzil,[1]; liver microsomal extract SD132,4.30 ± 0.01 pmol/mg/h
same,Loss in CPT-11 hydrolysis + benzil,[1]; liver microsomal extract SD132,22.3 pmol/mg/h
same,Loss in CPT-11 hydrolysis + benzil [%],[1]; liver microsomal extract SD132,83.9%
same,CPT-11 hydrolysis + benzil,[1]; liver microsomal extract SD134,2.57 ± 0.03 pmol/mg/h
same,Loss in CPT-11 hydrolysis + benzil,[1]; liver microsomal extract SD134,14.9 pmol/mg/h
same,Loss in CPT-11 hydrolysis + benzil [%],[1]; liver microsomal extract SD134,85.3%
same,CPT-11 hydrolysis + benzil,[1]; liver microsomal extract SD136,7.76 ± 0.18 pmol/mg/h
same,Loss in CPT-11 hydrolysis + benzil,[1]; liver microsomal extract SD136,47.6 pmol/mg/h
same,Loss in CPT-11 hydrolysis + benzil [%],[1]; liver microsomal extract SD136,86.0%
same,reduction of yields of SN-38 produced,[1]; [3],80–90%
same,CE activity + benzil,[2]; liver microsomal extract HG03,640 ± 97 nmol/mg/min
same,Loss in CE activity + benzil,[2]; liver microsomal extract HG03,5935 nmol/mg/min
same,Loss in CE activity + benzil [%],[2]; liver microsomal extract HG03,90.3%
same,CE activity + benzil,[2]; liver microsomal extract HG74,854 ± 97 nmol/mg/min
same,Loss in CE activity + benzil,[2]; liver microsomal extract HG74,6353 nmol/mg/min
same,Loss in CE activity + benzil [%],[2]; liver microsomal extract HG74,88.2%
same,CE activity + benzil,[2]; liver microsomal extract HG93,521 ± 86 nmol/mg/min
same,Loss in CE activity + benzil,[2]; liver microsomal extract HG93,4207 nmol/mg/min
same,Loss in CE activity + benzil [%],[2]; liver microsomal extract HG93,89.0%
same,CE activity + benzil,[2]; liver microsomal extract HG95,469 ± 45 nmol/mg/min
same,Loss in CE activity + benzil,[2]; liver microsomal extract HG95,4656 nmol/mg/min
same,Loss in CE activity + benzil [%],[2]; liver microsomal extract HG95,90.9%
same,CE activity + benzil,[2]; liver microsomal extract HG103,448 ± 25 nmol/mg/min
same,Loss in CE activity + benzil,[2]; liver microsomal extract HG103,3258 nmol/mg/min
same,Loss in CE activity + benzil [%],[2]; liver microsomal extract HG103,87.9%
same,CE activity + benzil,[2]; liver microsomal extract HH13,389 ± 41 nmol/mg/min
same,Loss in CE activity + benzil,[2]; liver microsomal extract HH13,504 nmol/mg/min
same,Loss in CE activity + benzil [%],[2]; liver microsomal extract HH13,56.4%
same,CE activity + benzil,[2]; liver microsomal extract HH61,406 ± 21 nmol/mg/min
same,Loss in CE activity + benzil,[2]; liver microsomal extract HH61,5472 nmol/mg/min
same,Loss in CE activity + benzil [%],[2]; liver microsomal extract HH61,93.1%
same,CE activity + benzil,[2]; liver microsomal extract HH74,377 ± 7.8 nmol/mg/min
same,Loss in CE activity + benzil,[2]; liver microsomal extract HH74,3329 nmol/mg/min
same,Loss in CE activity + benzil [%],[2]; liver microsomal extract HH74,89.8%
same,CE activity + benzil,[2]; liver microsomal extract HK37,476 ± 58 nmol/mg/min
same,Loss in CE activity + benzil,[2]; liver microsomal extract HK37,5856 nmol/mg/min
same,Loss in CE activity + benzil [%],[2]; liver microsomal extract HK37,92.5%
same,CE activity + benzil,[2]; liver microsomal extract SD003,439 ± 42 nmol/mg/min
same,Loss in CE activity + benzil,[2]; liver microsomal extract SD003,4804 nmol/mg/min
same,Loss in CE activity + benzil [%],[2]; liver microsomal extract SD003,91.6%
same,CE activity + benzil,[2]; liver microsomal extract SD004,552 ± 35 nmol/mg/min
same,Loss in CE activity + benzil,[2]; liver microsomal extract SD004,5070 nmol/mg/min
same,Loss in CE activity + benzil [%],[2]; liver microsomal extract SD004,90.2%
same,CE activity + benzil,[2]; liver microsomal extract SD104,507 ± 48 nmol/mg/min
same,Loss in CE activity + benzil,[2]; liver microsomal extract SD104,4881 nmol/mg/min
same,Loss in CE activity + benzil [%],[2]; liver microsomal extract SD104,90.6%
same,CE activity + benzil,[2]; liver microsomal extract SD120,367 ± 27 nmol/mg/min
same,Loss in CE activity + benzil,[2]; liver microsomal extract SD120,4128 nmol/mg/min
same,Loss in CE activity + benzil [%],[2]; liver microsomal extract SD120,91.8%
same,CE activity + benzil,[2]; liver microsomal extract SD123,544 ± 29 nmol/mg/min
same,Loss in CE activity + benzil,[2]; liver microsomal extract SD123,5401 nmol/mg/min
same,Loss in CE activity + benzil [%],[2]; liver microsomal extract SD123,90.9%
same,CE activity + benzil,[2]; liver microsomal extract SD124,268 ± 11 nmol/mg/min
same,Loss in CE activity + benzil,[2]; liver microsomal extract SD124,3140 nmol/mg/min
same,Loss in CE activity + benzil [%],[2]; liver microsomal extract SD124,92.1%
same,CE activity + benzil,[2]; liver microsomal extract SD128,713 ± 2.7 nmol/mg/min
same,Loss in CE activity + benzil,[2]; liver microsomal extract SD128,5600 nmol/mg/min
same,Loss in CE activity + benzil [%],[2]; liver microsomal extract SD128,88.7%
same,CE activity + benzil,[2]; liver microsomal extract SD132,935 ± 79 nmol/mg/min
same,Loss in CE activity + benzil,[2]; liver microsomal extract SD132,7259 nmol/mg/min
same,Loss in CE activity + benzil [%],[2]; liver microsomal extract SD132,88.6%
same,CE activity + benzil,[2]; liver microsomal extract SD134,322 ± 43 nmol/mg/min
same,Loss in CE activity + benzil,[2]; liver microsomal extract SD134,220 nmol/mg/min
same,Loss in CE activity + benzil [%],[2]; liver microsomal extract SD134,40.6%
same,CE activity + benzil,[2]; liver microsomal extract SD136,314 ± 35 nmol/mg/min
same,Loss in CE activity + benzil,[2]; liver microsomal extract SD136,2882 nmol/mg/min
same,Loss in CE activity + benzil [%],[2]; liver microsomal extract SD136,90.1%
same,reduction of CE activity,[2]; [3],80–90%
